How the values were obtained:
Assay type in all cases: cell-based
[1] = molecular target: T1, chymotrypsin-like sites (β5) of proteasome in MM cells (Homo sapiens, UniProt P28074); test: PROTEASOMEGLO assay of proteasome inhibition in MM cells
T1 sequence (P28074 60-263): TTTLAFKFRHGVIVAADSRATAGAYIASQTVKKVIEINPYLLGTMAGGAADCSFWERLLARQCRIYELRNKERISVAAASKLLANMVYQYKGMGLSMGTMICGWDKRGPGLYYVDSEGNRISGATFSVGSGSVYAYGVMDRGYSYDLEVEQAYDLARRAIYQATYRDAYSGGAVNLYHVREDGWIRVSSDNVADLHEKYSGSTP
Protocol: (§1) Proteasome inhibition in MM cells was measured with luminogenic substrates using PROTEASOMEGLO assay (Promega). […] An aliquot of culture was pelleted and medium was removed and replaced with PBS. The resulting cell suspension was mixed with luminogenic substrates in the manufacturer-provided lysis/assay buffer. After 3 minutes mixing on an orbital shaker, the plate was incubated in the dark for additional 17 minutes, followed by the measurements of the luminescence, performed in triplicate for each substrate/data point. Data were analyzed as for purified proteasomes. […] Cells (1×10^6 per well of a 6-well plate) were incubated with the inhibitors for 4 hours at 37° C. and this was followed by a 2 hour incubation with 5 μM BODIPY-TMR-epoxomicin. Subsequently, the medium was removed and the cells were washed with PBS and harvested. […] The supernatant was collected and the protein concentration was determined by the Bradford assay, and used to normalize gel loading. The samples were analysed by SDS-PAGE and fluorescent densitometry as described for competition experiment in cell lysates. IC50 values were calculated from three independent experiments using […] PRISM software.

[2] = molecular target: T2, trypsin-like sites (β2) of proteasome in MM cells (Homo sapiens, UniProt Q99436); test: as above
T2 construct: endogenous in cells; host or cells: NCI-H929, RPMI-8226 and other MM cell lines
T2 sequence (Q99436 44-277): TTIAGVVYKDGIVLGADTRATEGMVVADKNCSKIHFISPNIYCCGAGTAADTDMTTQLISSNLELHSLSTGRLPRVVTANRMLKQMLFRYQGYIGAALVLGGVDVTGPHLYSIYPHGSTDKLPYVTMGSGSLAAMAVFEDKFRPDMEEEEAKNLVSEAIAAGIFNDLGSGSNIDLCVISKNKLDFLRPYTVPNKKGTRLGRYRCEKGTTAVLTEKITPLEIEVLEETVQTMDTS
Protocol: as §1

[3] = molecular target: T3, caspase-like sites (β1) of proteasome in MM cells (Homo sapiens, UniProt P28072+Q99436); test: as above
T3 sequence (P28072 35-239): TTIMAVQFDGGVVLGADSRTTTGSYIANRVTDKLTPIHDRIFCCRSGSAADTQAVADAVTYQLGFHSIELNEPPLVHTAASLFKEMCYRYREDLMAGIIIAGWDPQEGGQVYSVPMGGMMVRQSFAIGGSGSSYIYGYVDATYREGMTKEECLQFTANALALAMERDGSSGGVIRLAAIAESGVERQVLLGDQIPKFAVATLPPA
T3 sequence (Q99436 44-277): T2 sequence (Q99436 44-277)

[4] = test system: MM1.R cells; test: ALAMAR BLUE cell viability assay; details: LU-005 0.004 μM 1 h, then 48 h
Protocol: (§2) RPMI-8226 and NCI-H929 cells were cultured in RPMI-1640 supplemented with 10% fetal bovine serum, penicillin, streptomycin, and plasmocin in 5% CO2 humidified incubator. HEK-293T cells were cultured in DMEM containing 10% fetal calf serum, 10 units/mL penicillin, and 10 μg/mL streptomycin in a 7% CO2 humidified incubator. Viability of multiple myeloma cells was measured with ALAMAR BLUE mitochondrial dye conversion assay. Viability of peripheral blood mononuclear cells (PBMNCs) was measured using CELL TITER-GLO luminescent cell viability assay (Promega), which is based on quantification of ATP present in the cells. Caspase-3/7 activity was measured using APO-ONE 3/7 homogeneous assay (Promega).

[5] = test system: KMS-12-BM cells; test: ALAMAR BLUE cell viability assay; details: then 48 h
Protocol: as §2

[6] = test system: KMS-18 cells; test: ALAMAR BLUE cell viability assay; details: then 48 h
Protocol: as §2

[7] = test system: NCI-H929 cells; test: ALAMAR BLUE cell viability assay; details: NCI-H929, then 48 h
Protocol: as §2

[8] = test system: RPMI-8226 cells; test: ALAMAR BLUE cell viability assay; details: RPMI-8226, then 48 h
Protocol: as §2

CC(C)C[C@H](NC(=O)[C@H](Cc1c(F)c(F)c(F)c(F)c1F)NC(=O)[C@H](Cc1ccccc1)NC(=O)[C@H](Cc1ccccc1)N=[N+]=[N-])C(=O)[C@@]1(C)CO1 [LU-005]
Inhibition of active sites β5 ([1]; KMS-12-BM, LU-005 0.037 μM 1 h): 48 ± 9 % control | Inhibition of active sites β5 ([1]; KMS-12-BM, LU-005 0.33 μM 1 h): 81 ± 3 % control | Inhibition of active sites β5 ([1]; KMS-12-BM, LU-005 1.0 μM 1 h): 95 ± 2 % control | Inhibition of active sites β5 ([1]; KMS-18, LU-005 0.037 μM 1 h): 14 % control | Inhibition of active sites β5 ([1]; KMS-18, LU-005 0.33 μM 1 h): 69 ± 8 % control | Inhibition of active sites β5 ([1]; KMS-18, LU-005 1.0 μM 1 h): 85 ± 6 % control | Inhibition of active sites β5 ([1]; KMS-18, LU-005 3.0 μM 1 h): 94 ± 4 % control | Inhibition of active sites β5 ([1]; KMS-18, LU-005 9.0 μM 1 h): 97 ± 1 % control | Inhibition of active sites β5 ([1]; MM1.R, LU-005 0.004 μM 1 h): 17 ± 4 % control | Inhibition of active sites β5 ([1]; NCI-H929, LU-005 0.0014 μM 1 h): 22 ± 4 % control | Inhibition of active sites β5 ([1]; NCI-H929, LU-005 0.004 μM 1 h): 22 ± 11 % control | Inhibition of active sites β5 ([1]; RPMI-8226, LU-005 0.037 μM 1 h): 45 ± 26 % control | Inhibition of active sites β5 ([1]; RPMI-8226, LU-005 0.33 μM 1 h): 62 ± 32 % control | Inhibition of active sites β5 ([1]; RPMI-8226, LU-005 1.0 μM 1 h): 82 ± 16 % control | Inhibition of active sites β2 ([2]; KMS-12-BM, LU-005 0.037 μM 1 h): −12 ± 1 % control | Inhibition of active sites β2 ([2]; KMS-12-BM, LU-005 0.33 μM 1 h): 3 ± 18 % control | Inhibition of active sites β2 ([2]; KMS-12-BM, LU-005 1.0 μM 1 h): 29 ± 7 % control | Inhibition of active sites β2 ([2]; KMS-18, LU-005 0.037 μM 1 h): −13 ± 13 % control | Inhibition of active sites β2 ([2]; KMS-18, LU-005 0.33 μM 1 h): 24 ± 6 % control | Inhibition of active sites β2 ([2]; KMS-18, LU-005 1.0 μM 1 h): 38 ± 5 % control | Inhibition of active sites β2 ([2]; KMS-18, LU-005 3.0 μM 1 h): 50 ± 14 % control | Inhibition of active sites β2 ([2]; KMS-18, LU-005 9.0 μM 1 h): 62 ± 5 % control | Inhibition of active sites β2 ([2]; MM1.R, LU-005 0.004 μM 1 h): 6.5 ± 0.5 % control | Inhibition of active sites β2 ([2]; NCI-H929, LU-005 0.0014 μM 1 h): −9 ± 2 % control | Inhibition of active sites β2 ([2]; NCI-H929, LU-005 0.004 μM 1 h): −13 ± 7 % control | Inhibition of active sites β2 ([2]; RPMI-8226, LU-005 0.037 μM 1 h): 1 ± 17 % control | Inhibition of active sites β2 ([2]; RPMI-8226, LU-005 0.33 μM 1 h): 13 ± 11 % control | Inhibition of active sites β2 ([2]; RPMI-8226, LU-005 1.0 μM 1 h): 22 ± 19 % control | Inhibition of active sites β1 ([3]; KMS-12-BM, LU-005 0.037 μM 1 h): −1 ± 5 % control | Inhibition of active sites β1 ([3]; KMS-12-BM, LU-005 0.33 μM 1 h): 6 ± 12 % control | Inhibition of active sites β1 ([3]; KMS-12-BM, LU-005 1.0 μM 1 h): 11 ± 16 % control | Inhibition of active sites β1 ([3]; KMS-18, LU-005 0.037 μM 1 h): 0 ± 8 % control | Inhibition of active sites β1 ([3]; KMS-18, LU-005 0.33 μM 1 h): 29 ± 7 % control | Inhibition of active sites β1 ([3]; KMS-18, LU-005 1.0 μM 1 h): 32 ± 4 % control | Inhibition of active sites β1 ([3]; KMS-18, LU-005 3.0 μM 1 h): 39 ± 12 % control | Inhibition of active sites β1 ([3]; KMS-18, LU-005 9.0 μM 1 h): 42 ± 2 % control | Inhibition of active sites β1 ([3]; MM1.R, LU-005 0.004 μM 1 h): 6 ± 8 % control | Inhibition of active sites β1 ([3]; NCI-H929, LU-005 0.0014 μM 1 h): −14 ± 15 % control | Inhibition of active sites β1 ([3]; NCI-H929, LU-005 0.004 μM 1 h): −7 ± 10 % control | Inhibition of active sites β1 ([3]; RPMI-8226, LU-005 0.037 μM 1 h): 16 ± 7 % control | Inhibition of active sites β1 ([3]; RPMI-8226, LU-005 0.33 μM 1 h): 37 ± 15 % control | Inhibition of active sites β1 ([3]; RPMI-8226, LU-005 1.0 μM 1 h): 37 ± 4 % control | Viability +NC-002 & NC-001 [4]: 26 ± 6 % control | Viability +NC-022 [4]: 66 ± 1 % control | Viability −NC-022 [4]: 102 ± 4 % control | Viability +NC-002 & NC-001 ([5]; LU-005 0.037 μM 1 h): 50 ± 2 % control | Viability +NC-022 ([5]; LU-005 0.037 μM 1 h): 90 ± 5 % control | Viability −NC-022 ([5]; LU-005 0.037 μM 1 h): 89 ± 8 % control | Viability +NC-002 & NC-001 ([5]; LU-005 0.33 μM 1 h): 2 ± 0 % control | Viability +NC-022 ([5]; LU-005 0.33 μM 1 h): 12 ± 2 % control | Viability −NC-022 ([5]; LU-005 0.33 μM 1 h): 80 ± 9 % control | Viability +NC-002 & NC-001 ([5]; LU-005 1.0 μM 1 h): 1 ± 0 % control | Viability +NC-022 ([5]; LU-005 1.0 μM 1 h): 1.5 ± 0.1 % control | Viability −NC-022 ([5]; LU-005 1.0 μM 1 h): 27 ± 6 % control | Viability +NC-002 & NC-001 ([6]; LU-005 0.037 μM 1 h): 79 ± 14 % control | Viability +NC-022 ([6]; LU-005 0.037 μM 1 h): 104 ± 3 % control | Viability −NC-022 ([6]; LU-005 0.037 μM 1 h): 108 ± 1 % control | Viability +NC-002 & NC-001 ([6]; LU-005 0.33 μM 1 h): 33 ± 20 % control | Viability +NC-022 ([6]; LU-005 0.33 μM 1 h): 106 ± 16 % control | Viability −NC-022 ([6]; LU-005 0.33 μM 1 h): 108 ± 0 % control | Viability +NC-002 & NC-001 ([6]; LU-005 1.0 μM 1 h): 8 ± 4 % control | Viability +NC-022 ([6]; LU-005 1.0 μM 1 h): 29 ± 12 % control | Viability −NC-022 ([6]; LU-005 1.0 μM 1 h): 88 ± 16 % control | Viability +NC-002 & NC-001 ([6]; LU-005 3.0 μM 1 h): 1 ± 0.1 % control | Viability +NC-022 ([6]; LU-005 3.0 μM 1 h): 24 ± 8 % control | Viability −NC-022 ([6]; LU-005 3.0 μM 1 h): 72 ± 2 % control | Viability +NC-002 & NC-001 ([6]; LU-005 9.0 μM 1 h): 0.8 ± 0.2 % control | Viability +NC-022 ([6]; LU-005 9.0 μM 1 h): 17.5 ± 7.5 % control | Viability −NC-022 ([6]; LU-005 9.0 μM 1 h): 45 ± 8 % control | Viability +NC-002 & NC-001 ([7]; LU-005 0.0014 μM 1 h): 50 ± 17 % control | Viability +NC-022 ([7]; LU-005 0.0014 μM 1 h): 77 ± 2 % control | Viability −NC-022 ([7]; LU-005 0.0014 μM 1 h): 97 ± 9 % control | Viability +NC-002 & NC-001 ([7]; LU-005 0.004 μM 1 h): 36 ± 14 % control | Viability +NC-022 ([7]; LU-005 0.004 μM 1 h): 69 ± 0 % control | Viability −NC-022 ([7]; LU-005 0.004 μM 1 h): 100 ± 13 % control | Viability +NC-002 & NC-001 ([8]; LU-005 0.037 μM 1 h): 76 ± 3 % control | Viability +NC-022 ([8]; LU-005 0.037 μM 1 h): 104 ± 5 % control | Viability −NC-022 ([8]; LU-005 0.037 μM 1 h): 109 ± 2 % control | Viability +NC-002 & NC-001 ([8]; LU-005 0.33 μM 1 h): 4.6 ± 0.7 % control | Viability +NC-022 ([8]; LU-005 0.33 μM 1 h): 31 ± 9 % control | Viability −NC-022 ([8]; LU-005 0.33 μM 1 h): 94 ± 1 % control | Viability +NC-002 & NC-001 ([8]; LU-005 1.0 μM 1 h): 1 ± 0 % control | Viability +NC-022 ([8]; LU-005 1.0 μM 1 h): 6 ± 3 % control | Viability −NC-022 ([8]; LU-005 1.0 μM 1 h): 10 ± 10 % control

From patent publication US8609610B2, “Inhibitors of the trypsin-like site of the proteasome and methods of use thereof” (Trustees of Dartmouth College, priority 2011, dated 2013)
